Test results: US20210267944A1 (BioXcel Therapeutics, Inc., priority 2018, published 2021)
Structures can show the parent of a compound that is named as a salt. Where two headings read alike, the source gives them in different places.

What was measured:
[1] = human, in vivo
From the text: In addition, we assessed the following Secondary Objectives: • a. Determine how rapidly the drug can be administered up to the total dose needed to achieve RASS −1. • b. Determine how long the calming effect persists after discontinuation of study drug administration. • c. Determine whether any adverse effects on blood pressure, heart rate, or respiratory drive occurs before or coincident with the achievement of Primary Objective. Stopping rules for blood pressure and heart rate, indicating a clinically significant event, are: • 1. drop in systolic BP<90 mm of Hg. • 2. drop in diastolic BP<60 mm of Hg • 3. drop below 50 beats per minute
The participants were continuously monitored during the study by the site personnel, including monitoring blood pressure and heart rate. Intermittent electrocardiograms were taken from the start of the infusion through resolution of the sedation and/or any adverse effects on blood pressure or heart rate.
Return to baseline parameters is defined as BP falling within 15 mm of Hg of baseline reading prior to drug administration or HR falling within 10 beats per minute of baseline reading prior to drug administration.

[2] = tested on: subjects suffering from schizophrenia
From the text: The level of agitation in subjects may be assessed herein using the PEC (Positive and Negative Symptom Scale—Excitatory Component) scale, which is a known five item scale that measures symptoms of agitation, namely excitement, tension, hostility, uncooperativeness, and poor impulse control, with each item rated from 1 (absent) to 7 (extremely severe). Combined scores range from 5 to 35. A score of 20 or more corresponds to severe agitation.

Cc1cccc([C@H](C)c2cnc[nH]2)c1C [dexmedetomidine hydrochloride]
Hemodynamic effects [1]: All | adverse effect on blood pressure (systolic and diastolic) and heart rate [1]: no adverse effect | infusion time at which stopping criteria of <60 mm Hg was met [1]: 135 min | PEC values after infusion start ([2]; Patient No. 1, treatment arm, 0 min): 9 | PEC values after infusion start ([2]; Patient No. 1, treatment arm, 15 min): 5 | PEC values after infusion start ([2]; Patient No. 2, treatment arm, 0 min): 16 | PEC values after infusion start ([2]; Patient No. 2, treatment arm, 15 min): 13 | PEC values after infusion start ([2]; Patient No. 2, treatment arm, 30 min): 12 | PEC values after infusion start ([2]; Patient No. 2, treatment arm, 45 min): 11 | PEC values after infusion start ([2]; Patient No. 2, treatment arm, 60 min): 9 | PEC values after infusion start ([2]; Patient No. 2, treatment arm, 75 min): 7 | PEC values after infusion start ([2]; Patient No. 3, treatment arm, 0 min): 12 | PEC values after infusion start ([2]; Patient No. 3, treatment arm, 15 min): 12 | PEC values after infusion start ([2]; Patient No. 3, treatment arm, 30 min): 10 | PEC values after infusion start ([2]; Patient No. 3, treatment arm, 45 min): 7 | PEC values after infusion start ([2]; Patient No. 3, treatment arm, 60 min): 6 | PEC values after infusion start ([2]; Patient No. 4, treatment arm, 0 min): 9 | PEC values after infusion start ([2]; Patient No. 4, treatment arm, 15 min): 9 | PEC values after infusion start ([2]; Patient No. 4, treatment arm, 30 min): 8 | PEC values after infusion start ([2]; Patient No. 4, treatment arm, 45 min): 8 | PEC values after infusion start ([2]; Patient No. 4, treatment arm, 60 min): 7 | PEC values after infusion start ([2]; Patient No. 4, treatment arm, 75 min): 7 | PEC values after infusion start ([2]; Patient No. 4, treatment arm, 90 min): 7 | PEC values after infusion start ([2]; Patient No. 4, treatment arm, […]): 7 | PEC values after infusion start ([2]; Patient No. 11, treatment arm, 0 min): 13 | PEC values after infusion start ([2]; Patient No. 11, treatment arm, 15 min): 13 | PEC values after infusion start ([2]; Patient No. 11, treatment arm, 30 min): 11 | PEC values after infusion start ([2]; Patient No. 11, treatment arm, 45 min): 9 | PEC values after infusion start ([2]; Patient No. 11, treatment arm, 60 min): 9 | PEC values after infusion start ([2]; Patient No. 11, treatment arm, 75 min): 7 | PEC values after infusion start ([2]; Patient No. 12, treatment arm, 0 min): 13 | PEC values after infusion start ([2]; Patient No. 12, treatment arm, 15 min): 13 | PEC values after infusion start ([2]; Patient No. 12, treatment arm, 30 min): 13 | PEC values after infusion start ([2]; Patient No. 12, treatment arm, 45 min): 10 | PEC values after infusion start ([2]; Patient No. 12, treatment arm, 60 min): 10 | PEC values after infusion start ([2]; Patient No. 12, treatment arm, 75 min): 8 | PEC values after infusion start ([2]; Patient No. 12, treatment arm, 90 min): 6 | PEC values after infusion start ([2]; Patient No. 12, treatment arm, […]): 5 | PEC values after infusion start ([2]; Patient No. 14, treatment arm, 0 min): 10 | PEC values after infusion start ([2]; Patient No. 14, treatment arm, 15 min): 9 | PEC values after infusion start ([2]; Patient No. 14, treatment arm, 30 min): 6 | PEC values after infusion start ([2]; Patient No. 14, treatment arm, 45 min): 6 | PEC values after infusion start ([2]; Patient No. 14, treatment arm, 60 min): 5 | PEC values after infusion start ([2]; Patient No. 14, treatment arm, 75 min): 5 | PEC values after infusion start ([2]; Patient No. 16, treatment arm, 0 min): 10 | PEC values after infusion start ([2]; Patient No. 16, treatment arm, 15 min): 9 | PEC values after infusion start ([2]; Patient No. 16, treatment arm, 30 min): 6 | PEC values after infusion start ([2]; Patient No. 16, treatment arm, 45 min): 6 | PEC values after infusion start ([2]; Patient No. 16, treatment arm, 60 min): 7 | PEC values after infusion start ([2]; Patient No. 16, treatment arm, 75 min): 5 | PEC values after infusion start ([2]; Patient No. 17, treatment arm, 0 min): 10 | PEC values after infusion start ([2]; Patient No. 17, treatment arm, 15 min): 8 | PEC values after infusion start ([2]; Patient No. 17, treatment arm, 30 min): 7 | PEC values after infusion start ([2]; Patient No. 17, treatment arm, 45 min): 5 | Efficacy (Primary/secondary end points): subjects with PEC score below 7 ([2]; Schizophrenia Study): 9/10 PEC score | patients in the treatment arm with agitation reduced to a minimum (PEC score of 7 or below) ([2]; schizophrenia): 9 out of 10
